Results from patent publication US6605611B2, “Base analogues” (Nycomed Amersham PLC, priority 1997, dated 2003).

Tests used:
Assay type in all cases: biochemical
[1] = test system: exonuclease free Klenow fragment of DNA polymerase I (EFK); test: primer extension assay, EFK, Templates 1 and 2, Example 13; conditions: for substrate for the polymerase (EFK), incorporation: 20 μM total nucleotide, 37° C. for 3 minutes, Template 1 or Template 2; for substrate quality compared with the analogue with the shorter linker arm: EFK primer extension, 20 μM
Protocol: A primer extension assay was used to evaluate compounds (3.3a), (3.3b), (4.3a),(4.3b) and (8.1) as substrates for exonuclease free Klenow fragment of DNA polymerase I (EFK). The assay used a ^33P 5′ end labelled 15 mer primer hybridised to one of two 24 mer templates. The sequences of the primer and templates are:
(§1) One picomole ^33P labelled primer was hybridised to 2 picomoles of template in ×2 Klenow buffer. To this was added either 20 μM dCTP or 20 μM (3.3a) or 20 μM (3.3b) or 20 μM (4.3a) or 20 μM (4.3b) or 20 μM (8.1) or mixtures of dCTP and compound (3.3a) or (3.3b) or (4.3a) or (4.3b) or (8.1) keeping the total nucleotide concentration fixed at 20 μM. One unit EFK and 2 mU inorganic pyrophosphatase were used per reaction. Primer alone, primer plus template plus enzyme controls were also carried out. The reactions were incubated at 37° C. for 3 minutes. Reactions were then stopped by the addition of formamide/EDTA stop solution. Reaction products were separated on a 19% polyacrylamide 7M urea gel and the product fragments sized by comparison with a ^33P labelled 8 to 32 base oligonucleotide ladder after exposure to Kodak Biomax autoradiography film.

[2] = biological target: terminal deoxynucleotidyl transferase (Bos taurus, UniProt P06526); test: oligonucleotide tailing reaction with terminal deoxynucleotidyl transferase; conditions: 32 μM nucleotide, 25 U terminal deoxynucleotidyl transferase, 15 mer primer, 90 minutes at 37° C.
Excerpt: 1-(2′-deoxy-5′-triphospho-β-D-ribofuranosyl)piperidino[2,3-d]pyrimidine-2(1H)-one (1.6), 6-methylamine-3-(5-triphospho-2-deoxy-β-D-erythro-pentofuranosyl)furano[2,3-d]pyrimidin-2-one) (3.3a) and 5-FAM-(6-methylamine-3-(5-triphospho-2-deoxy-β-D-erythro-pentofuranosyl)furano[2,3-d]pyrimidin-2-one) (3.3b), 6-methyl-N-(6-amino)-caproamide-3-(5-triphospho-2-deoxy-β-D-erythro-pentofuranosyl)furano[2,3-d]pyrimidin-2-one (4.3a) and 5-FAM-(6-methyl-N-(6-amino)-caproamide-3-(5-triphospho-2-deoxy-β-D-erythro-pentofuranosyl)furano[2,3-d]pyrimidin-2-one) (4.3b), 6-methylamine-3-(5-triphospho-2-deoxy-β-D-erythro-pentofuranosyl)pyrrolo[2,3-d]pyrimidin-2-one) (8.1), 6-methyl-N-(6-amino)-caproamide-3-(5-triphospho-2-deoxy-β-D-erythro-pentofuranosyl)pyrrolo[2,3-d]pyrimidin-2-one (10.1a), and the FAM and Cy5 of (10.1a, e.g. 10.1b and 10.1c) as substrates for terminal deoxynucleotidyl transferase. In order to test the ability of compounds (1.6), (3.3a), (3.3b), (4.3a), (4.3b), (8.1), (10.1a), (10.1b) and (10.1c) to be accepted by terminal deoxynucleotidyl transferase as a substrate, an oligonucleotide tailing reaction was performed.
A 15 mer primer (sequence: 5′ TGC ATG TGC TGG AGA 3′) and 8 to 32 base oligonucleotide markers were 5′ end labelled with [γ^33P] ATP and T4 polynucleotide kinase. Reactions were boiled for 5 minutes after labelling to remove any PNK activity. Four picomoles of the labelled primer, 25 U terminal deoxynucleotidyl transferase and 32 μM dATP, dCTP, dGTP, dTTP or compounds (1.6), (3.3a), (3.3b), (4.3a), (4.3b), (8.1), (10.1a), (10.1b) and (10.1c) were incubated in 25 μl 100 mM cacodylate buffer pH7.2, 2 mM CoCl2 and 0.2 mM 2-mercaptoethanol for 90 minutes at 37° C. The reactions were stopped by the addition of formamide stop solution and the reaction products run on a 19% polyacrylamide 7M urea gel with the labelled markers. Autoradiography using Biomax film was carried out on the dry gel.

[3] = test system: exonuclease free Klenow fragment of DNA polymerase I (EFK); test: primer extension assay, EFK, Example 14; conditions: 80 μM (1.6), with or without 4 μM dNTPαS, 37° C. for 3 minutes
Protocol: A primer extension assay was used to evaluate compound (1.6) as a substrate for exonuclease free Klenow fragment of DNA polymerase I (EFK). The assay used a ^33P 5′ end labelled 15 mer primer hybridised to a 24 mer template. The sequences of the primer and template are:
One picomole ^33P labelled primer was hybridised to 2 picomoles of template in ×2 Klenow buffer. To this was added either 4 μM dNTPαS or 80 μM (1.6) or a mixture of 4 μM dNTPαS 80 μM (1.6). One unit EFK and 2 mU inorganic pyrophosphatase were used per reaction. Primer alone, primer plus template plus enzyme controls were also carried out. The reactions were incubated at 37° C. for 3 minutes. Reactions were then stopped by the addition of formamide I EDTA stop solution. Reaction products were separated on a 19% polyacrylamide 7M urea gel and the product fragments sized by comparison with a ^33P labelled 8 to 32 base oligonucleotide ladder after exposure to Kodak Biomax autoradiography film.

[4] = test system: exonuclease free Klenow fragment of DNA polymerase I (EFK); test: primer extension assay, EFK, Example 12; conditions: 20 μM total nucleotide, 37° C. for 3 minutes, 24 mer template
Protocol: A primer extension assay was used to evaluate compounds (10.1a), (10.1b) and (10.1c) as substrates for exonuclease free Klenow fragment of DNA polymerase I (EFK). The assay used a ^33P 5′ end labelled 15 mer primer hybridised to a 24 mer template. The sequences of the primer and template are:
as §1, with “μM (10.1a)” for “μM (3.3a)”, “μM (10.1b)” for “μM (3.3b)”, “μM (10.1c)” for “μM (4.3a) or 20 μM (4.3b) or 20 μM (8.1)”, “compound (10.1a)” for “compound (3.3a)”, “or compound (10.1b)” for “or (3.3b)”, “or compound (10.1c)” for “or (4.3a) or (4.3b) or (8.1)”

[5] = test system: AMV reverse transcriptase; test: 1st strand cDNA synthesis, incorporation monitored by 33P-dATP spike, TLC and gel
Protocol: Incorporation of compound (10.1a) into 1st strand cDNA was carried out using a balance of dCTP such that the total concentration of (10.1a) and dCTP was equivalent to each of the other three dNTP concentrations.
(10.1a) was used at three different percentages
These reactions were compared with reactions including Cy5 labelled dCTP. All reactions were monitored by carrying out the reaction in duplicate and monitoring one of the duplicates with a spike of ^33P-dATP.
1 μl ^33P-dATP-active samples only
1 μl AMV reverse transcriptase 20 U/μl
Incubate at 42° C. for 2½ hours
The cDNA reactions were monitored by TLC as follows
1 μl of sample was spotted onto PEI cellulose TLC plates and run in 1.25M Potassium phosphate buffer
Samples were then purified by Qiagen column and eluted in 50 μl of water. The active cDNA products were analysed on a 6% polyacrylamide gel
The gel was then covered in Saran wrap and exposed to phosphorscreen for 1 hour. Phosphorscreen analysis was carried out on the Molecular Dynamics Storm 860 instrument.

[6] = biological target: Thermus aquaticus DNA polymerase (Thermus aquaticus, UniProt P19821); test: incorporation into arabidopsis DNA by PCR; conditions: 5% to 50% (10.1a), balance dCTP, 35 cycles
Protocol: Incorporation of (10.1a) into arabidopsis DNA by PCR was carried out as follows:
The (10.1a) was used in the PCR at various percentages with a balance of dCTP such that the total concentration of (10.1a) and dCTP was equivalent to each of the other three base dNTP's. The percentages of (10.1a) used were:
After PCR, the samples were purified by Qiagen column and analysed by 1% agarose gel.

terminal deoxynucleotidyl transferase, sequence (P06526 whole entry): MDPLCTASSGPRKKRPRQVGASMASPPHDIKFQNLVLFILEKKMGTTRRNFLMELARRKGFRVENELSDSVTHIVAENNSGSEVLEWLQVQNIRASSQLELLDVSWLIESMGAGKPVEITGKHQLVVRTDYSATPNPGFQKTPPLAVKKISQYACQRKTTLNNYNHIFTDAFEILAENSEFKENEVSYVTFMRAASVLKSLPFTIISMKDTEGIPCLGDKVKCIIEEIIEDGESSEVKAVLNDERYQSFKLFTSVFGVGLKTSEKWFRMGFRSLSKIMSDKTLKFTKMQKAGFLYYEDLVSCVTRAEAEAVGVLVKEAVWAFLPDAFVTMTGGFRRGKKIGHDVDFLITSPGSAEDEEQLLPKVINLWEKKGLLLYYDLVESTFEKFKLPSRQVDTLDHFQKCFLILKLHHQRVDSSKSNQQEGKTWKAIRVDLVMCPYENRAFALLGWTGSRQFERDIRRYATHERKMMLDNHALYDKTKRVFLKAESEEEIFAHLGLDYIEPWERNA
Thermus aquaticus DNA polymerase, sequence (P19821 whole entry): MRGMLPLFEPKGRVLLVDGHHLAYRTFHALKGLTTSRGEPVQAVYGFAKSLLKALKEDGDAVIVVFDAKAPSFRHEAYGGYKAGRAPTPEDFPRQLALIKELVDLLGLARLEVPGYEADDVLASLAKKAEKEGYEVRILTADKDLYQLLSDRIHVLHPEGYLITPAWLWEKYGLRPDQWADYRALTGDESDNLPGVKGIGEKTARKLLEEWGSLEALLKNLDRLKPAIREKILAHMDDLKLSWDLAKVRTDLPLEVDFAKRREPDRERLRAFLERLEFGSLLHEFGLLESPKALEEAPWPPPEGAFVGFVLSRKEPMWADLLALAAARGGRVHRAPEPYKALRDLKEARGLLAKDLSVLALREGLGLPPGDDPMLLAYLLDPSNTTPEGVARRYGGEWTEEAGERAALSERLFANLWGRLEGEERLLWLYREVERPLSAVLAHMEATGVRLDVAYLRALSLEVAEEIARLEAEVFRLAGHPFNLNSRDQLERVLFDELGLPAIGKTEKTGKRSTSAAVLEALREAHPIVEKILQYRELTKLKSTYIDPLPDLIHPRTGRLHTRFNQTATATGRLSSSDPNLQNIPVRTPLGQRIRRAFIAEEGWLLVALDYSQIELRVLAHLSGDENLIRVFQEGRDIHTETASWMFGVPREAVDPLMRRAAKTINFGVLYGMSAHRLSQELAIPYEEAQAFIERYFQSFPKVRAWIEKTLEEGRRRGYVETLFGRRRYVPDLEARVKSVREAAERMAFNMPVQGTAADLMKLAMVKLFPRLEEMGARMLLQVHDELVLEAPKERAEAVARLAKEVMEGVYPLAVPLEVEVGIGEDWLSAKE

NCCCCCC(=O)NCC=Cc1cn([C@H]2C[C@H](O)[C@@H](COP(=O)(O)OP(=O)(O)OP(=O)(O)O)O2)c(=O)nc1N [5-allylaminocaproamide dCTP, reference compound]
incorporation by the polymerase ([1]; under similar assay conditions): did not show any incorporation

O=c1nc2c(cn1C1CC(O)C(COP(=O)(O)OP(=O)(O)OP(=O)(O)O)O1)CCCN2 [Compound 1.6, 1-(2′-deoxy-5′-triphospho-β-D-ribofuranosyl)piperidino[2,3-d]pyrimidine-2(1H)-one]
3′ tail length [2]: equivalent to those produced by dCTP at the same concentration
substrate for EFK, incorporation in place of dCTP [3]: a substrate for EFK and that it was efficiently incorporated in place of dCTP

NCc1cc2cn([C@H]3C[C@H](O)[C@@H](COP(=O)(O)OP(=O)(O)OP(=O)(O)O)O3)c(=O)nc2o1 [Compound 3.3a]
substrate for the polymerase (EFK), incorporation [1]: not a substrate for the polymerase

O=C(NCc1cc2cn([C@H]3C[C@H](O)[C@@H](COP(=O)(O)OP(=O)(O)OP(=O)(O)O)O3)c(=O)nc2o1)c1ccc2c(c1)C(=O)OC21c2ccc(O)cc2Oc2cc(O)ccc21 [Compound 3.3b, 5-Carboxyfluoresceinyl-(6-methylamine-3-(5-triphospho-2-deoxy-β-D-erythro-pentofuranosyl)furano[2,3-d]pyrimidin-2-one)]
substrate for the polymerase (EFK), incorporation [1]: not a substrate for the polymerase using either of the Templates

NCCCCCC(=O)NCc1cc2cn([C@H]3C[C@H](O)[C@@H](COP(=O)(O)OP(=O)(O)OP(=O)(O)O)O3)c(=O)nc2o1 [Compound 4.3a, 6-Methyl-N-(6-amino)-caproamide-3-(5-triphospho-2-deoxy-β-D-erythro-pentofuranosyl)furano[2,3-d]pyrimidin-2-one]
3′ tail length [2]: 7-9 bases
substrate for the polymerase (EFK), incorporation [1]: a substrate for the polymerase again being able to replace dCTP
substrate quality compared with the analogue with the shorter linker arm [1]: better substrate than (3.3a)

O=C(CCCCCNC(=O)c1ccc2c(c1)C(=O)OC21c2ccc(O)cc2Oc2cc(O)ccc21)NCc1cc2cn([C@H]3C[C@H](O)[C@@H](COP(=O)(O)OP(=O)(O)OP(=O)(O)O)O3)c(=O)nc2o1 [Compound 4.3b, 5-FAM-(6-methyl-N-(6-amino)-caproamide-3-(5-triphospho-2-deoxy-β-D-erythro-pentofuranosyl)furano[2,3-d]pyrimidin-2-one)]
3′ tail length [2]: 9-14 bases
substrate for the polymerase (EFK), incorporation [1]: only incorporated in reactions using Template 2

NCc1cc2cn([C@H]3C[C@H](O)[C@@H](COP(=O)(O)OP(=O)(O)OP(=O)(O)O)O3)c(=O)nc2[nH]1 [Compound 8.1]
substrate for the polymerase (EFK), incorporation [1]: a substrate for the polymerase being able to substitute for dCTP

NCCCCCC(=O)NCc1cc2cn([C@H]3C[C@H](O)[C@@H](COP(=O)(O)OP(=O)(O)OP(=O)(O)O)O3)c(=O)nc2[nH]1 [Compound 10.1a, 6-methyl-N-(6-amino)-caproamide-3-(5-triphospho-2-deoxy-β-D-erythro-pentofuranosyl)pyrrolo[2,3-d]pyrimidin-2-one]
3′ tail length [2]: 7-8 bases
substrate for the polymerase (EFK), incorporation in place of dCTP [4]: surprisingly good substrate
substrate quality compared with the analogue with the shorter linker arm [1]: better substrate than (8.1)
33P-dATP Incorporation (TLC) ([5]; 50% (10.1a), balance dCTP): 23.2%
33P-dATP Incorporation (TLC) ([5]; 75% (10.1a), balance dCTP): 16.5%
33P-dATP Incorporation (TLC) ([5]; 100% (10.1a), no dCTP): 11.5%
formation of PCR product, agarose gel analysis [6]: resulted in the formation of PCR product

O=C(CCCCCNC(=O)c1ccc2c(c1)C(=O)OC21c2ccc(O)cc2Oc2cc(O)ccc21)NCc1cc2cn([C@H]3C[C@H](O)[C@@H](COP(=O)(O)OP(=O)(O)OP(=O)(O)O)O3)c(=O)nc2[nH]1 [Compound 10.1b, 5-FAM-(6-methyl-N-(6-amino)-caproamide-3-(5-triphospho-2-deoxy-β-D-erythro-pentofuranosyl)pyrrolo[2,3-d]pyrimidin-2-one)]
3′ tail length [2]: 18-24 bases

Cy5-(6-methyl-N-(6-amino)-caproamide-3-(triphospho-2-2deoxy-β-D-erythro-pentofuranosyl)pyrrolo[2,3-d]pyrimidin-2-one [Compound 10.1c]
3′ tail length [2]: greater than 30 bases
